Laboratory results: publication PMC8037586, “Synthesis and Enantioselective Pharmacokinetic/Pharmacodynamic Analysis of New CNS-Active Sulfamoylphenyl Carbamate Derivatives” (International Journal of Molecular Sciences, 2021)
Like-named read-outs stand apart in the source and are kept apart here.

How the values were obtained:
[1] = molecular target: T1, human carbonic anhydrase (CA) isoform VII (Homo sapiens, UniProt P43166); assay: Stopped-flow CO2 hydrase assay, CA VII; type: biochemical; conditions: for Ki: means ± SEM of 3 different assays
T1 sequence (P43166 whole entry, canonical isoform): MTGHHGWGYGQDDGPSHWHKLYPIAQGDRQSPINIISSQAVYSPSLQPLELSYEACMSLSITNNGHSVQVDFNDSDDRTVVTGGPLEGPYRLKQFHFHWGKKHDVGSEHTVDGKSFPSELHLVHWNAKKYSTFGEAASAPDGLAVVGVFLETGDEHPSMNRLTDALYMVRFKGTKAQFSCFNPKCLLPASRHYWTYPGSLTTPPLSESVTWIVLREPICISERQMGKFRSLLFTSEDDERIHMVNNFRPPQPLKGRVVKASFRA

[2] = molecular target: T2, human carbonic anhydrase (CA) isoform IV (Homo sapiens, UniProt P22748); assay: Stopped-flow CO2 hydrase assay, CA IV; type: biochemical; conditions: means ± SEM of 3 different assays
T2 sequence (P22748 19-312): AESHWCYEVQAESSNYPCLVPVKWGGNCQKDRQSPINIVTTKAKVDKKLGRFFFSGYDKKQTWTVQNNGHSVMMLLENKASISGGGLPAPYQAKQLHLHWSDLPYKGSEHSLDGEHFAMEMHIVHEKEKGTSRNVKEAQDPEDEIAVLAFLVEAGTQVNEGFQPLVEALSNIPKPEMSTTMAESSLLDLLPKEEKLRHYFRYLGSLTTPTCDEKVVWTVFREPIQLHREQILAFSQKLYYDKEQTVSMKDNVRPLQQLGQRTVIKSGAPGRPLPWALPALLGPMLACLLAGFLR

[3] = Pharmacokinetics from plasma levels after i.p. administration to rats; type: in vivo, rat; conditions: i.p. 80 mg/kg; for CL/F / Cmax / MRT / Tmax / half-life / Vd/F / AUC(0-inf): male, Sprague Dawley, rat, ip; for Vd/F: read-out: Vss/F; for AUC(0-inf): plasma
Method: (§1) The pharmacokinetics (PK) of racemic-MBPC and its two individual enantiomers were studied following i.p. administration (80 mg/kg) to male Sprague Dawley rats weighing approximately 200–250 g, and their major PK parameters were estimated. The PK experiments were approved by the Ethical Committee of the Hebrew University’s Faculty of Medicine. The dose was administered to rats in multisol that is a mixture of propylene glycol, alcohol (EtOH), and water for injection at a ratio of 8:1:1. The study details were as described previously. Plasma and brain levels of racemic-MBPC and its individual enantiomers were monitored at 20, 40, 60, 90, 120, 160, 180, 200, 220, and 260 min after dosing. Two rats were sacrificed at each time point.
(§2) Plasma and brain concentrations of each compound were quantified by an HPLC assay. The HPLC analysis was performed on a system (2695 Separation Module; Waters, Milford, MA, USA) with a photodiode array UV detector (2996 PDA Detector; Waters, Milford, MA, USA) conditioned as follows: Kinetex, 5 u EVO C18 100 A, 1504.6-mm column (PhenomenexVR, Torrance, CA, USA). Linear gradients (5–95% acetonitrile content) with H2O (0.1% formic acid) and acetonitrile were used as the eluents with a flow rate of 1 mL/min at 20 °C. The compounds and the internal standard were detected at 250 nm. Plasma and brain concentrations of MBPC and its two individual enantiomers were quantified as previously described, [29].
(§3) The PK parameters of each compound were calculated by non-compartmental analysis based on statistical moment theory using the PK software Phoenix Winnonlin Tripos L.P. (Pharsight Co., Mountain View, CA, USA) as previously described.

[4] = Pharmacokinetics from brain levels after i.p. administration to rats; type: in vivo, rat; conditions: i.p. 80 mg/kg; for AUCinf / AUC(0-inf) / CL/F / Cmax / MRT / Tmax / half-life / Vd/F: brain levels; for AUCinf / AUC(0-inf): 80 mg/kg; for AUC(0-inf) / Kp / CL/F / Cmax / MRT / Tmax / half-life / Vd/F: male, Sprague Dawley, rat, ip; for Kp: AUCbrain/AUCplasma, read-out: Brain-to-plasma (AUCinf) ratio; for Vd/F: read-out: Vss/F
Method: as §1, §2, §3

rats [5] = assay: Minimal neurotoxicity (TD50) in rats; type: in vivo, rat; conditions: rats dosed p.o.
Excerpt: (§4) Table 3 Quantitative anticonvulsant and minimal neurotoxicity data (ED50 and TD50 values) and protective indexes (PI) of […] (MBPC) and 3-methylpentyl(4-sulfamoylphenyl)carbamate (MSPC). in rats dosed p.o. or i.p. ^b. | column: Neurotoxicity-TD50 (mg/kg) [95% CI] ^a; Protective Index (PI = TD50/ED50)

[6] = Minimal neurotoxicity (TD50) in rats; type: in vivo, rat; conditions: rat, in vivo, po; rats dosed p.o.; read-out: Neurotoxicity-TD50 [95% CI]
Excerpt: as §4

[7] = molecular target: T3, human carbonic anhydrase (CA) isoform I (Homo sapiens, UniProt P00915); assay: Stopped-flow CO2 hydrase assay, CA I; type: biochemical; conditions: for Ki: means ± SEM of 3 different assays
T3 sequence (P00915 whole entry, canonical isoform): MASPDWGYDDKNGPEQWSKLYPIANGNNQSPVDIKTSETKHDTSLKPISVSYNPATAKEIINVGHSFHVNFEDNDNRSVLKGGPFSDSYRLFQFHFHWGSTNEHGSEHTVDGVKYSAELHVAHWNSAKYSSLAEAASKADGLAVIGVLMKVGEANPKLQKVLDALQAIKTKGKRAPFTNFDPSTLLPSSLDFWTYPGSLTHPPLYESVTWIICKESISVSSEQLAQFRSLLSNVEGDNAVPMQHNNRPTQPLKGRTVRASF

[8] = test system: rat maximal electroshock test (MES); assay: Rat maximal electroshock (MES) anticonvulsant test; type: in vivo; conditions: po, rats dosed p.o., read-out: MES-ED50 [95% CI]
Method: The experiments with the MES model were conducted in male Sprague Dawley rats weighing 100–120 g (Charles River Laboratories, Wilmington, MA, USA) as previously described. Eight rats were tested per dose in the dose–response curve in order to determine the ED50 value of each compound. The experiments were approved by the Ethical Committee of the NIH-ETSP program where the anticonvulsant activity was tested.

[9] = molecular target: T4, human carbonic anhydrase (CA) isoform II (Homo sapiens, UniProt P00918); assay: Stopped-flow CO2 hydrase assay, CA II; type: biochemical; conditions: for Ki: means ± SEM of 3 different assays
[10] = molecular target: T2, human carbonic anhydrase (CA) isoform IV; set-up: method as in PMID 28275953, PMID 31124389; conditions: previously reported data; cited from earlier work
[11] = molecular target: T1, human carbonic anhydrase (CA) isoform VII; set-up: method as in PMID 28275953, PMID 31124389; conditions: previously reported data; cited from earlier work
rats [12] = test system: rats; set-up: method as in PMID 28275953, PMID 31124389; conditions: cited from earlier work
[13] = molecular target: T3, human carbonic anhydrase (CA) isoform I; set-up: method as in PMID 28275953, PMID 31124389; conditions: previously reported data; cited from earlier work
[14] = test system: rat maximal electroshock test (MES); set-up: method as in PMID 28275953, PMID 31124389; conditions: cited from earlier work
[15] = molecular target: T4, human carbonic anhydrase (CA) isoform II; set-up: method as in PMID 28275953, PMID 31124389; conditions: previously reported data; cited from earlier work
[16] = Enantiostability: extraction from rat plasma and optical rotation measurement; type: in vitro ADME; conditions: extracted from rat plasma; specific optical rotation compared to initial value
Excerpt: MBPC was not included in such a series. […] The slightly better BPR of (S)-MBPC may contribute to its better rat anticonvulsant ED50 value. MBPC’s BPR values were better than that of (S)-MSPC but lower than those of racemic- and (R)-MSPC [10]. While (R)-MSPC has lower plasma and brain exposure compared to (S)-MSPC, the two MBPC enantiomers had similar brain permeability, with a slightly better BPR value for (S)-MBPC.

Compound	Ki [1]	Ki [2]	CL/F ([3]; plasma levels)	Cmax ([3]; plasma levels)	MRT ([3]; plasma levels)	Tmax ([3]; plasma levels)	half-life ([3]; plasma levels)	Vd/F ([3]; plasma levels)	AUC(0-inf) ([3]; 80 mg/kg, plasma levels)	AUCinf [4]	AUC(0-inf) ([4]; brain)	CL/F [4]	Cmax [4]	MRT [4]	Tmax [4]	half-life [4]	Vd/F [4]	Protective Index (PI = TD50/ED50) (rats [5])	TD50 [6]	Ki [7]	further results
CCC(C)OC(=O)Nc1ccc(S(N)(=O)=O)cc1 (racemic) [Racemic-MBPC]	121 ± 8 nM	432 ± 28 nM	41.7 mL/min/kg	15300 ng/mL	1.7 h	0.33 h	0.5 h	4.3 L/kg	32000 ng·h/mL	47800 ng·h/mL	48000 ng·h/mL	28.3 mL/min/kg	16500 ng/mL	2 h	1.33 h	0.7 h	3.4 L/kg	>20	> 500 mg/kg	97.1 ± 5.3 nM	Kp ([4]; brain/plasma): 1.49; ED50 [8]: 25 mg/kg; Ki [9]: 20.2 ± 1.5 nM
CCC(C)CCOC(=O)Nc1ccc(S(N)(=O)=O)cc1 (racemic) [Racemic-MSPC, 3-methylpentyl(4-sulfamoylphenyl)carbamate]	–	–	–	–	–	–	–	–	–	–	–	–	–	–	–	–	–	–	–	–	Ki [10]: 750 ± 42 nM; Ki [11]: 351 ± 26 nM; Neurotoxicity-TD50 [95% CI] (rats [12]; rats dosed i.p.): >250 mg/kg; Protective Index (PI = TD50/ED50) (rats [12]; rats dosed i.p.): >19; Neurotoxicity-TD50 [95% CI] (rats [12]; rats dosed p.o.): >500 mg/kg; Protective Index (PI = TD50/ED50) (rats [12]; rats dosed p.o.): >18; Ki [13]: 77 ± 4.7 nM; MES-ED50 [95% CI] ([14]; rats dosed i.p.): 13 [8–22] mg/kg; MES-ED50 [95% CI] ([14]; rats dosed p.o.): 28 [18–35] mg/kg; Ki [15]: 7.6 ± 0.5 nM
CC[C@@H](C)OC(=O)Nc1ccc(S(N)(=O)=O)cc1 [(R)-MBPC]	197 ± 14 nM	522 ± 26 nM	55 mL/min/kg	10700 ng/mL	2 h	1.7 h	0.6 h	6.7 L/kg	24000 ng·h/mL	30400 ng·h/mL	30000 ng·h/mL	43.3 mL/min/kg	11400 ng/mL	2.1 h	2.7 h	0.5 h	5.4 L/kg	>13	> 500 mg/kg	203 ± 13 nM	higher clearance than its enantiomer ([3]; (R)- vs (S)-enantiomer): 65%; enantiostability (chiral inversion) [16]: no chiral inversion was observed; Kp ([4]; brain): 1.27; ED50 [8]: 39 mg/kg; Ki [9]: 7.1 ± 0.4 nM; effectiveness relative to its (S)-enantiomer against hCA II ([9]; ratio of KI values): five times more effective
CC[C@@H](C)CCOC(=O)Nc1ccc(S(N)(=O)=O)cc1 [(R)-MSPC]	–	–	–	–	–	–	–	–	–	–	–	–	–	–	–	–	–	–	–	–	Ki [10]: 810 ± 55 nM; Ki [11]: 170 ± 9 nM; Neurotoxicity-TD50 [95% CI] (rats [12]; rats dosed i.p.): 134 [108–158] mg/kg; Protective Index (PI = TD50/ED50) (rats [12]; rats dosed i.p.): 3.4; Ki [13]: 34.1 ± 2.5 nM; MES-ED50 [95% CI] ([14]; rats dosed i.p.): 39 [31–44] mg/kg; MES-ED50 [95% CI] ([14]; rats dosed p.o.): 30 [22–37] mg/kg; Ki [15]: 3.3 ± 0.2 nM
CC[C@H](C)OC(=O)Nc1ccc(S(N)(=O)=O)cc1 [(S)-MBPC]	53.3 ± 2.9 nM	249 ± 13 nM	33.3 mL/min/kg	12700 ng/mL	2.7 h	1 h	1.2 h	5.7 L/kg	40000 ng·h/mL	51500 ng·h/mL	52000 ng·h/mL	26.7 mL/min/kg	15200 ng/mL	4.2 h	1.66 h	0.9 h	5 L/kg	>11	> 200 mg/kg	71.8 ± 6.5 nM	times more effective than the (R)-enantiomer against hCA VII ([1]; ratio of KI values): 3.7 times; AUCinf ([3]; plasma levels, 80 mg/kg): 39600 ng·h/mL; enantiostability (chiral inversion) [16]: no chiral inversion was observed; Kp ([4]; brain): 1.32; times more effective than the (R)-enantiomer against hCA I ([7]; ratio of KI values): 2.9 times; ED50 [8]: 19 mg/kg; Ki [9]: 34.9 ± 1.4 nM
CC[C@H](C)CCOC(=O)Nc1ccc(S(N)(=O)=O)cc1 [(S)-MSPC]	–	–	–	–	–	–	–	–	–	–	–	–	–	–	–	–	–	–	–	–	Ki [10]: 593 ± 42 nM; Ki [11]: 744 ± 36 nM; Neurotoxicity-TD50 [95% CI] (rats [12]; rats dosed i.p.): 149 [121–157] mg/kg; Protective Index (PI = TD50/ED50) (rats [12]; rats dosed i.p.): 3.5; Ki [13]: 130 ± 8 nM; MES-ED50 [95% CI] ([14]; rats dosed i.p.): 43 [33–52] mg/kg; MES-ED50 [95% CI] ([14]; rats dosed p.o.): 24 [17–29] mg/kg; Ki [15]: 20.3 ± 1.4 nM
